The record followed here is patent publication US10975084B2, “KDM5 inhibitors” (Merck Sharp & Dohme Corp., priority 2016, dated 2021).

The experiment concerns the target KDM5B (Homo sapiens (Human), UniProt Q9UGL1). The experiment can be described thus: KDM5B TR-FRET Enzyme Activity Assay. The experiment is classed as biochemical. Particulars: LANCE TR-FRET; 5 nM full-length recombinant KDM5B; ten point titration 100000 nM to 5.08 nM. How it is done: KDM5B TR-FRET Enzyme Activity Assay
KDM5B enzymatic activity was determined with the LANCE (Lanthanide Chelate Excite) TR-FRET (Time-resolved fluorescence resonance energy transfer) assay. […] To each well of a white Greiner 1536 Lumitrac 1536 well-plate, 50 nL of compound (100 fold dilution in final assay volume of 5 μL) was dispensed, followed by the addition of 4 μL of 1× assay buffer (50 mM Hepes 7.3, 0.5 mM TCEP, 0.005% Brij-35, 0.02% BSA, 50 μM Na-L-Ascorbate and 2 μM AmFe(II)Sulfate) containing 5 nM of Full-length KDM5B enzyme (recombinant protein from baculovirus-transfected Sf21 cells: full-length KDM5B; MW=176.825 kDa). Following a 30 minutes compound and enzyme incubation in a humidified chamber, each reaction was initiated by the addition of 1 μL 1× assay buffer containing […] biotinylated H3K4Me3 peptide, and 500 nM α-ketoglutarate. The final reaction in each well of 5 μL consists of 5 nM KDM5B, 500 nM biotinylated-peptide, and 500 nM α-ketoglutarate. De-methylation reactions were allowed to proceed for 60 minutes. Reactions were immediately quenched by the addition of 5 uL of 2× Lance Detection Buffer (PerkinElmer) with 0.5 mM EDTA and 2 nM of Eu-anti-H3K4Me1-2 antibody, and 30 nM of Streptavidin-conjugated Dylight 650 detection reagents. After 60 minutes incubation with detection reagents, reaction plates were read on a PerkinElmer EnVision plate reader using standard TR-FRET protocol. Briefly, excitation of donor molecules (Eu-chelate-anti-H3K4Me1-2-antibody) with a laser light source at 337 nm produces energy that can be transferred to Dylight-650 acceptor molecules if this donor:acceptor pair is within close proximity. Fluorescence intensity at both 665 nm (acceptor) and 615 nm (donor) are measured and a TR-FRET ratio calculated for each well (acceptor intensity/donor intensity). IC50 values were determined by 4 parameter robust fit of TR-FRET ratio values vs. (Log 10) compound concentrations.
On the technique in general: TR-FRET usually uses a lanthanide donor and a delayed reading to cut background.

Sequence of KDM5B (Q9UGL1 whole entry): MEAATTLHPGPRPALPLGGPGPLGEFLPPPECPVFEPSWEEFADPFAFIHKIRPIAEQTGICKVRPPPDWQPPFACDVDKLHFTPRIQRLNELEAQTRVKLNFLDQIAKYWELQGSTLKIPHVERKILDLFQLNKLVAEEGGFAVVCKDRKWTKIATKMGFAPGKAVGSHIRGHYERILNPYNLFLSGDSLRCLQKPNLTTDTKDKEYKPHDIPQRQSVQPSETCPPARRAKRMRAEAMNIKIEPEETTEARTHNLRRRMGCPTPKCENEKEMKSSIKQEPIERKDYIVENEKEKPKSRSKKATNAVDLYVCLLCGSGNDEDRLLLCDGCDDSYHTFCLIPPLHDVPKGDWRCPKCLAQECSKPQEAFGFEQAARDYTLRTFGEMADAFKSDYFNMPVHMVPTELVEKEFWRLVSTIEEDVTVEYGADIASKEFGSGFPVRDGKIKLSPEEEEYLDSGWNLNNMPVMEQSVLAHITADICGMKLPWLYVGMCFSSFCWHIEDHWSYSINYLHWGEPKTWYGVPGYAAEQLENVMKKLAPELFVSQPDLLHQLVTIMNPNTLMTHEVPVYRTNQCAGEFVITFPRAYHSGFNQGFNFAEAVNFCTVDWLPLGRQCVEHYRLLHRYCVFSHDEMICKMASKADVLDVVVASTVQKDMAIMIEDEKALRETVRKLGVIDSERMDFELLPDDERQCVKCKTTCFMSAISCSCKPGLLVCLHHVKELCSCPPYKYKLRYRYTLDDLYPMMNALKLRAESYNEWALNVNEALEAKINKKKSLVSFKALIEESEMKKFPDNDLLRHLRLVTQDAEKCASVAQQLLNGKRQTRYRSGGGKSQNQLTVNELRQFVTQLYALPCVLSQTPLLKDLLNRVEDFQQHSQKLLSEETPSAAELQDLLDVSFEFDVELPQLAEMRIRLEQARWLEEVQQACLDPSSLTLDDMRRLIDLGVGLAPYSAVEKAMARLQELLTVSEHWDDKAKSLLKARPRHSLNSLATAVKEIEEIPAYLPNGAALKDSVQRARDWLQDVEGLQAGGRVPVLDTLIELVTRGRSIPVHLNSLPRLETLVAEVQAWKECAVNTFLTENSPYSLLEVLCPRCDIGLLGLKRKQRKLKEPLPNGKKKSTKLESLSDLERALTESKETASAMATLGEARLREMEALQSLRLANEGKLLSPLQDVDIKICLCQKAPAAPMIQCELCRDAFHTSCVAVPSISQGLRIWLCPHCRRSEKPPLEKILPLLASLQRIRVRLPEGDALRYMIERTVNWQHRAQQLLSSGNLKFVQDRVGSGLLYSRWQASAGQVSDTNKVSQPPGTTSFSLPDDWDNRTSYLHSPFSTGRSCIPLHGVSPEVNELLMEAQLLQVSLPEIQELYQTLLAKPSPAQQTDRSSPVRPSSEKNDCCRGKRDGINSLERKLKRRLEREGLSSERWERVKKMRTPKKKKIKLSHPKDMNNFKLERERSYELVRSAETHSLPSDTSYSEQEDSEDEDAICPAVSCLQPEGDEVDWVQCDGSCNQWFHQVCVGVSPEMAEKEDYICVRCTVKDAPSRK

The IC50 is the concentration at which inhibition is half-maximal. On to `CC(C)c1c(-c2ccncc2)[nH]c2ncnn2c1=O` [Example 11-24, 6-(1-methylethyl)-5-pyridin-4-yl[1,2,4]triazolo[1,5-a]pyrimidin-7(4H)-one], for which the IC50 came out at 0.0412 µM. Next, `CC(C)c1c(-c2cccnc2)[nH]c2ncnn2c1=O` [Example 11-25, 6-(1-methylethyl)-5-pyridin-3-yl[1,2,4]triazolo[1,5-a]pyrimidin-7(4H)-one]: 0.0471 µM; `CC(C)c1c(-c2cncnc2)[nH]c2ncnn2c1=O` [Example 11-26, 6-(1-methylethyl)-5-pyrimidin-5-yl[1,2,4]triazolo[1,5-a]pyrimidin-7(4H)-one]: 0.103 µM; `CC(C)c1c(-c2ccn(C)c2)[nH]c2ncnn2c1=O` [Example 11-27, 6-(1-methylethyl)-5-(1-methyl-1H-pyrrol-3-yl)[1,2,4]triazolo[1,5-a]pyrimidin-7(4H)-one]: 0.0179 µM. With `Cc1[nH]ncc1-c1[nH]c2ncnn2c(=O)c1C(C)C` [Example 11-28, 6-(1-methylethyl)-5-(5-methyl-1H-pyrazol-4-yl)[1,2,4]triazolo[1,5-a]pyrimidin-7(4H)-one] the figure was 0.155 µM; with `CC(C)c1c(C2=CCCCC2)[nH]c2ncnn2c1=O` [Example 11-29, 5-cyclohex-1-en-1-yl-6-(1-methylethyl)[1,2,4]triazolo[1,5-a]pyrimidin-7(4H)-one], 0.399 µM.

For `CC(C)c1c(C2=COCCC2)[nH]c2ncnn2c1=O` [Example 11-30, 5-(3,4-dihydro-2H-pyran-5-yl)-6-(1-methylethyl)[1,2,4]triazolo[1,5-a]pyrimidin-7(4H)-one], the IC50 was found to be 0.254 µM. With `CC(C)c1c(C2=CCCOC2)[nH]c2ncnn2c1=O` [Example 11-31, 5-(5,6-dihydro-2H-pyran-3-yl)-6-(1-methylethyl)[1,2,4]triazolo[1,5-a]pyrimidin-7(4H)-one] the figure was 0.372 µM; with `CC(C)c1c(-c2ccccc2F)[nH]c2ncnn2c1=O` [Example 11-32, 5-(2-fluorophenyl)-6-(1-methylethyl)[1,2,4]triazolo[1,5-a]pyrimidin-7(4H)-one], 0.394 µM.

In the case of `CC(C)c1c(-c2cccc(F)c2)[nH]c2ncnn2c1=O` [Example 11-33, 5-(3-fluorophenyl)-6-(1-methylethyl)[1,2,4]triazolo[1,5-a]pyrimidin-7(4H)-one], the IC50 was found to be 0.136 µM.

`Cc1noc(C)c1-c1[nH]c2ncnn2c(=O)c1C(C)C` [Example 11-34, 5-(3,5-dimethylisoxazol-4-yl)-6-(1-methylethyl)[1,2,4]triazolo[1,5-a]pyrimidin-7(4H)-one]: the IC50 was found to be 11.1 µM. With `CC(C)c1c(C2=CCCN(C)C2)[nH]c2ncnn2c1=O` [Example 11-35, 6-(1-methylethyl)-5-(1-methyl-1,2,5,6-tetrahydropyridin-3-yl)[1,2,4]triazolo[1,5-a]pyrimidin-7(4H)-one] the figure was 0.506 µM. With `CC(C)c1c(C2=CCC(O)CC2)[nH]c2ncnn2c1=O` (stereo not shown) [Example 11-36, 5-(4-hydroxycyclohex-1-en-1-yl)-6-(1-methylethyl)[1,2,4]triazolo[1,5-a]pyrimidin-7(4H)-one] the figure was 0.137 µM; with `CC(C)c1c(-c2cccc(C#N)c2)[nH]c2ncnn2c1=O` [Example 11-37, 3-[6-(1-methylethyl)-7-oxo-4,7-dihydro[1,2,4]triazolo[1,5-a]pyrimidin-5-yl]benzonitrile], 0.0216 µM. As to `CC(C)c1c(-c2ccc(C#N)cc2)[nH]c2ncnn2c1=O` [Example 11-38, 4-[6-(1-methylethyl)-7-oxo-4,7-dihydro[1,2,4]triazolo[1,5-a]pyrimidin-5-yl]benzonitrile], the IC50 stood at 0.0216 µM. On to `CC(C)c1c(-c2cnn(Cc3ccccn3)c2)[nH]c2ncnn2c1=O` [Example 11-39, 6-(1-methylethyl)-5-[1-(pyridin-2-ylmethyl)-1H-pyrazol-4-yl][1,2,4]triazolo[1,5-a]pyrimidin-7(4H)-one], for which the IC50 was found to be 0.00583 µM.
